Test results published in patent US20040116336A1, “Peptide derivatives” (priority 2002, published 2004).
Like-named read-outs stand apart in the source and are kept apart here. Starred links: 1 amine or outer side, 2 acyl side, 3 side chain; linkers in the order of their positions; H or OH if unused. Non-standard residues stand in square brackets, D forms with d. Residues, ends and D or L forms follow the SMILES beside them. No end group written: not given here. *: point of attachment. X1 = O=C([C@H](Cc1ccc2ccc3cccc4ccc1c2c34)N[*:1])[*:2]; Phe(4-Cl) = N[C@@H](Cc1ccc(Cl)cc1)C(=O)O; 2Nal = N[C@@H](Cc1ccc2ccccc2c1)C(=O)O; Lys(Me2) = CN(C)CCCC[C@H](N)C(=O)O; Cha = N[C@@H](CC1CCCCC1)C(=O)O; Morpholide = C1CN(*)CCO1; Dap = NC[C@H](N)C(=O)O; Hexanoyl = CCCCCC(=O)*

How the values were obtained:
APJ [1] = biological target: T1, APJ (Homo sapiens, UniProt P35414); assay: Inhibitory activity on forskolin-stimulated cAMP production in CHO-A10 clone 6 cells; assay type: cell-based
T1 construct: expressed in transfected cells; host or cells: CHO (CHO-A10; clone 6 for the cAMP assay)
T1 sequence (P35414 1-380): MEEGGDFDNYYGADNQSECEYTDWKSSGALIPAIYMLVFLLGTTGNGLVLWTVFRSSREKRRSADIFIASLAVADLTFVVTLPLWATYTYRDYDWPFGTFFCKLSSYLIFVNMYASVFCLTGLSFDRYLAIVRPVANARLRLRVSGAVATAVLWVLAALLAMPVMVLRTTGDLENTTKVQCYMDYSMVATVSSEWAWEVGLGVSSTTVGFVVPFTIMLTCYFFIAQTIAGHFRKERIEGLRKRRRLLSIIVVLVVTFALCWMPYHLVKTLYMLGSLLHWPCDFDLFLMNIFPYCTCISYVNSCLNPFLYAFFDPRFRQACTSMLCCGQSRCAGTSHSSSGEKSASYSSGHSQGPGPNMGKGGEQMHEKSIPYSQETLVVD
Protocol: Measurement of an Inhibitory Activity on Forskolin-Stimulated cAMP Production
Hanks' balanced salt solution (HBSS) containing 0.2 mM 3-isobutyl-1-methylxanthine (IBMX) and 0.05% bovine serum albumin was prepared as an assay buffer, and each well was washed twice with 500 μl assay buffer and pre-incubated at 37° C. for 30 minutes. Further, each well was washed once with 500 μl assay buffer, and a sample dissolved in the assay buffer containing 1 μM forskolin was added at a volume of 500 μl/well and incubated at 37° C. for 30 minutes. Wells incubated with the assay buffer not containing forskolin were prepared in the same manner in order to determine the basal level of cellular cAMP production, while wells incubated with the assay buffer containing forskolin were also prepared in order to determine the maximum level of cAMP production stimulated with forskolin. After incubation was finished, each well was washed once with 500 μl assay buffer, and 500 μl lysis buffer 1B attached to a cAMP EIA system from Amersham was added to each well, to extract cAMP. According to the protocol of the kit, 100 μl of each extract was used to determine the level of cAMP. For the inhibitory activity of the sample on cAMP production, the difference (inhibited cAMP production) between the maximum level and the level of cAMP in the sample-containing wells was determined, and the inhibitory activity was expressed as percentage relative to the increased level of cAMP production stimulated with forskolin (that is, the difference between the maximum level and basal level), and from this dose-reaction curve, the EC50 was determined.

APJ [2] = biological target: T1, APJ; assay: Receptor binding assay-2 (compound in Reference Example 2 used)
Protocol: This product was mixed with an equal volume of an assay buffer (50 mM Tris-HCl/pH 7.5, 5 mM EDTA, 0.5 mM PMSF, 20 μg/ml leupeptin, 0.1 μg/ml pepstatin A, 4 μg/ml E-64 (Peptide Research Laboratory, Co.), 0.1% bovine serum albumin) and stored at −30° C. before use.
CHO-A10 cells were cultured, recovered with PBS containing 5 mM EDTA from a culture vessel, and suspended in the above-mentioned assay buffer not containing bovine serum albumin. The cells were homogenized 3 times at 12,000 rpm for 15 seconds by a Polytron homogenizer (manufactured by Kinematica Inc.) and then centrifuged (1000×g, 4° C., 10 minutes), and the supernatant was recovered. The precipitates were subjected again to the same procedure as above, and the respective supernatants were combined and centrifuged at 100,000×g, 4° C. for 1 hour, to recover precipitates (membrane fraction). The membrane fraction was suspended again in a small amount of the buffer, homogenized with a Teflon homogenizer and stored at −80° C. before use.
Binding assay was carried out under the following conditions. […] Measurement of non-specific binding was carried out using a well containing 1 μM unlabeled compound in place of the test sample. After the incubation was finished, a cell harvester (Packard) adapted to 96 wells and a filter unit (GF/C, Packard) were used for separation thereby capturing the membrane fraction on the filter. After the filter was sufficiently dried, Microcinti 0 (Packard) was added thereto, and using Top Count (Packard), the amount of the labeled material captured together with the membrane fraction on the filter was measured.

[3] = compound in Reference Example 2 used as ligand, read-out: IC50

EC50 (APJ [1]; read-out: EC50)	IC50 (APJ [2]; [3])	Molecule	EC50 (APJ [1])	IC50 (APJ [2])
0.37 nM	0.61 nM	CSCC[C@H](NC(=O)[C@@H]1CCCN1C(=O)CNC(=O)[C@H](CCCCN)NC(=O)[C@H](Cc1c[nH]cn1)NC(=O)[C@H](CO)NC(=O)[C@H](CC(C)C)NC(=O)[C@H](CCCNC(=N)N)NC(=O)[C@@H]1CCCN1C(=O)[C@@H](N)CCCNC(=N)N)C(=O)N[C@@H](Cc1ccc2ccccc2c1)C(=O)O [Compound in Ex. 40] (H-RPRLSHKGPM[2Nal]-OH)		
0.58 nM	0.22 nM	CC(C)C[C@H](NC(=O)[C@H](CCCNC(=N)N)NC(=O)[C@@H]1CCCN1C(=O)[C@@H](N)CCCNC(=N)N)C(=O)N[C@@H](CO)C(=O)N[C@@H](Cc1c[nH]cn1)C(=O)N[C@@H](C)C(=O)NCC(=O)N1CCC[C@H]1C(=O)N[C@@H](CC1CCCCC1)C(=O)N1CCC[C@H]1C(=O)N[C@@H](Cc1ccc(Cl)cc1)C(=O)O [Compound in Ex. 56] (H-RPRLSHAGP[Cha]P[Phe(4-Cl)]-OH; N-terminus and C-terminus assumed)		
0.49 nM	0.16 nM	CC(C)C[C@H](NC(=O)[C@H](CCCNC(=N)N)NC(=O)[C@@H]1CCCN1C(=O)[C@H](CCCNC(=N)N)NC(=O)[C@H](CCC(N)=O)NC(=O)[C@H](CCCNC(=N)N)NC(=O)[C@@H](N)CCCNC(=N)N)C(=O)N[C@@H](CO)C(=O)N[C@@H](C)C(=O)N[C@@H](CCCNC(=N)N)C(=O)NCC(=O)N(C)C [Compound in Ex. 51] (H-RRQRPRLSARG-NMe2)		
0.33 nM	0.074 nM	CSCC[C@H](NC(=O)[C@@H]1CCCN1C(=O)CNC(=O)[C@H](CCCNC(=N)N)NC(=O)[C@H](C)NC(=O)[C@H](CO)NC(=O)[C@H](CC(C)C)NC(=O)[C@H](CCCCN(C)C)NC(=O)[C@@H]1CCCN1C(=O)[C@@H](N)CCCNC(=N)N)C(=O)N1CCC[C@H]1C(=O)N[C@@H](Cc1ccccc1)C(=O)O [Compound in Ex. 63] (H-RP[Lys(Me2)]LSARGPMPF-OH; N-terminus and C-terminus assumed)		
1.2 nM	0.26 nM	CC(C)C[C@H](NC(=O)[C@H](CCCNC(=N)N)NC(=O)[C@@H]1CCCN1C(=O)[C@H](CCCNC(=N)N)NC(=O)[C@H](CCC(N)=O)NC(=O)[C@H](CCCNC(=N)N)NC(=O)[C@@H](N)CCCNC(=N)N)C(=O)N[C@@H](CO)C(=O)N[C@@H](C)C(=O)N[C@@H](CCCNC(=N)N)C(=O)NCC(=O)N1CCOCC1 [Compound in Ex. 52] (H-RRQRPRLSARG-Morpholide; N-terminus assumed)		
0.16 nM	0.17 nM	CSCC[C@H](NC(=O)[C@@H]1CCCN1C(=O)CNC(=O)[C@H](CCCCN)NC(=O)[C@H](Cc1c[nH]cn1)NC(=O)[C@H](CO)NC(=O)[C@H](CC(C)C)NC(=O)[C@H](CCCNC(=N)N)NC(=O)[C@@H]1CCCN1C(=O)[C@@H](N)CCCNC(=N)N)C(=O)N[C@@H](Cc1ccc(Cl)cc1)C(=O)O [Compound in Ex. 28] (H-RPRLSHKGPM[Phe(4-Cl)]-OH; N-terminus and C-terminus assumed)		
1.1 nM	0.37 nM	CSCC[C@H](NC(=O)[C@@H]1CCCN1C(=O)CNC(=O)[C@H](CCCCN)NC(=O)[C@H](Cc1c[nH]cn1)NC(=O)[C@H](CO)NC(=O)[C@H](CC(C)C)NC(=O)[C@H](CCCNC(=N)N)NC(=O)[C@@H]1CCCN1C(=O)[C@H](CCCNC(=N)N)NC(=O)[C@H](Cc1ccccc1)NC(=O)[C@H](CCCNC(=N)N)NC(=O)[C@@H](N)CCCNC(=N)N)C(=O)N1CCC[C@H]1C(=O)N[C@@H](Cc1ccccc1)C(=O)O [Compound in Ex. 33]		
0.39 nM	0.036 nM	CSCC[C@H](NC(=O)[C@@H]1CCCN1C(=O)CNC(=O)[C@H](CCCNC(=N)N)NC(=O)[C@H](C)NC(=O)[C@H](CO)NC(=O)[C@H](CC(C)C)NC(=O)[C@H](CCCNC(=N)N)NC(=O)[C@@H]1CCCN1C(=O)[C@H](CCCNC(=N)N)NC(=O)[C@H](CCC(N)=O)NC(=O)[C@H](CCCNC(=N)N)NC(=O)[C@@H](N)CCCNC(=N)N)C(=O)N1CCC[C@H]1C(=O)N[C@@H](Cc1ccccc1)C(=O)O [Compound in Ex. 17]		
0.1 nM	0.35 nM	CSCC[C@H](NC(=O)[C@@H]1CCCN1C(=O)CNC(=O)[C@H](CCCCN)NC(=O)[C@H](Cc1c[nH]cn1)NC(=O)[C@H](CO)NC(=O)[C@H](CC(C)C)NC(=O)[C@H](CCCNC(=N)N)NC(=O)[C@@H]1CCCN1C(=O)[C@@H](N)CCCNC(=N)N)C(=O)N1CCC[C@H]1C(=O)N[C@@H](Cc1ccc2ccccc2c1)C(=O)O [Compound in Ex. 32]		
1.1 nM	0.45 nM	CCCCCC(=O)NC[C@H](NC(=O)[C@H](CO)NC(=O)[C@H](CC(C)C)NC(=O)[C@H](CCCNC(=N)N)NC(=O)[C@@H]1CCCN1C(=O)[C@@H](N)CCCNC(=N)N)C(=O)N[C@@H](CCCNC(=N)N)C(=O)NCC(=O)N1CCC[C@H]1C(=O)N[C@@H](CC1CCCCC1)C(=O)N1CCC[C@H]1C(=O)N[C@@H](Cc1ccc(Cl)cc1)C(=O)O [Compound in Ex. 67, Arg-Pro-Arg-Leu-Ser-Dap(C6)-Arg-Gly-Pro-Cha-Pro-Phe(Cl)] (H-RPRLS[Dap](Hexanoyl)RGP[Cha]P[Phe(4-Cl)]-OH; N-terminus and C-terminus assumed)		
		CC(C)C[C@H](NC(=O)[C@H](CCCNC(=N)N)NC(=O)[C@@H]1CCCN1C(=O)[C@@H](N)CCCNC(=N)N)C(=O)N[C@@H](CO)C(=O)N[C@@H](C)C(=O)N[C@@H](CCCNC(=N)N)C(=O)NCC(=O)N1CCC[C@H]1C(=O)N[C@@H](CC1CCCCC1)C(=O)N1CCC[C@H]1C(=O)N[C@@H](Cc1ccc2ccc3cccc4ccc1c2c34)C(=O)O [Compound in Ex. 61] (H-RPRLSARGP[Cha]P[X1]-OH; N-terminus and C-terminus assumed)	2.2 nM	0.56 nM
		CC(C)C[C@H](NC(=O)[C@H](CCCNC(=N)N)NC(=O)[C@@H]1CCCN1C(=O)[C@@H](N)CCCNC(=N)N)C(=O)N[C@@H](CO)C(=O)N[C@@H](C)C(=O)N[C@@H](CCCNC(=N)N)C(=O)NCC(=O)N1CCC[C@H]1C(=O)N[C@@H](CC1CCCCC1)C(=O)N[C@@H](Cc1ccc2ccc3cccc4ccc1c2c34)C(=O)O [Compound in Ex. 60] (H-RPRLSARGP[Cha][X1]-OH)	1.1 nM	0.8 nM
0.23 nM	0.14 nM	CC(C)C[C@H](NC(=O)[C@H](CCCNC(=N)N)NC(=O)[C@@H]1CCCN1C(=O)[C@H](CCCNC(=N)N)NC(=O)[C@H](CCC(N)=O)NC(=O)[C@H](CCCNC(=N)N)NC(=O)[C@@H](N)CCCNC(=N)N)C(=O)N[C@@H](CO)C(=O)N[C@@H](C)C(=O)N[C@@H](CCCNC(=N)N)C(=O)NCC(=O)NCC(=O)N[C@@H](CC1CCCCC1)C(=O)O [Compound in Ex. 62] (H-RRQRPRLSARGG[Cha]-OH; N-terminus and C-terminus assumed)		
0.43 nM	0.54 nM	CC(C)C[C@H](NC(=O)[C@H](CCCNC(=N)N)NC(=O)[C@@H]1CCCN1C(=O)[C@@H](N)CCCNC(=N)N)C(=O)N[C@@H](Cc1ccccc1)C(=O)N[C@@H](Cc1c[nH]cn1)C(=O)N[C@@H](CCCCN)C(=O)NCC(=O)N1CCC[C@H]1C(=O)N[C@@H](CC1CCCCC1)C(=O)N[C@@H](Cc1ccc(Cl)cc1)C(=O)O [Compound in Ex. 37] (H-RPRLFHKGP[Cha][Phe(4-Cl)]-OH; N-terminus and C-terminus assumed)		
0.36 nM	1.8 nM	RPRLFARGPMF [Compound in Ex. 47]		
0.71 nM	3.5 nM	CSCC[C@H](NC(=O)[C@@H]1CCCN1C(=O)CNC(=O)[C@H](CCCCN)NC(=O)[C@H](Cc1c[nH]cn1)NC(=O)[C@H](CO)NC(=O)[C@H](CC(C)C)NC(=O)[C@H](CCCNC(=N)N)NC(=O)[C@@H]1CCCN1C(=O)[C@@H](N)CCCNC(=N)N)C(=O)N1CCC[C@H]1C(=O)N[C@@H](CC1CCCCC1)C(=O)O [Compound in Ex. 49]		
